What was measured:
[1] = target: DGKα (Homo sapiens (Human), UniProt P23743); assay: Biochemical DGK IC50 assay, DGKα ADP-Glo assay; conditions: 7.5 nM enzyme, 140 μM ATP, 80 μM DAG
How it was run: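 Compounds at final 1.55˜10000 nM or 23.3˜150000 nM were tested against full-length DGKα. Substrate was lipid micelles of DAG and PS resuspended in 25 mM HEPES pH 7.0 with 0.5 mM EDTA and 160 mM octyl β-D-glucopyranoside. ADP formed was detected by ADP-Glo.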

[2] = target: DGKζ (Homo sapiens (Human), UniProt Q13574); assay: Biochemical DGK IC50 assay, DGKζ ADP-Glo assay; conditions: 0.5 nM enzyme, 140 μM ATP, 80 μM DAG; read-out: DGKζ ADP-Glo assay IC50
Sequence of DGKζ (Q13574 other isoform, or with tags, fused parts or gaps): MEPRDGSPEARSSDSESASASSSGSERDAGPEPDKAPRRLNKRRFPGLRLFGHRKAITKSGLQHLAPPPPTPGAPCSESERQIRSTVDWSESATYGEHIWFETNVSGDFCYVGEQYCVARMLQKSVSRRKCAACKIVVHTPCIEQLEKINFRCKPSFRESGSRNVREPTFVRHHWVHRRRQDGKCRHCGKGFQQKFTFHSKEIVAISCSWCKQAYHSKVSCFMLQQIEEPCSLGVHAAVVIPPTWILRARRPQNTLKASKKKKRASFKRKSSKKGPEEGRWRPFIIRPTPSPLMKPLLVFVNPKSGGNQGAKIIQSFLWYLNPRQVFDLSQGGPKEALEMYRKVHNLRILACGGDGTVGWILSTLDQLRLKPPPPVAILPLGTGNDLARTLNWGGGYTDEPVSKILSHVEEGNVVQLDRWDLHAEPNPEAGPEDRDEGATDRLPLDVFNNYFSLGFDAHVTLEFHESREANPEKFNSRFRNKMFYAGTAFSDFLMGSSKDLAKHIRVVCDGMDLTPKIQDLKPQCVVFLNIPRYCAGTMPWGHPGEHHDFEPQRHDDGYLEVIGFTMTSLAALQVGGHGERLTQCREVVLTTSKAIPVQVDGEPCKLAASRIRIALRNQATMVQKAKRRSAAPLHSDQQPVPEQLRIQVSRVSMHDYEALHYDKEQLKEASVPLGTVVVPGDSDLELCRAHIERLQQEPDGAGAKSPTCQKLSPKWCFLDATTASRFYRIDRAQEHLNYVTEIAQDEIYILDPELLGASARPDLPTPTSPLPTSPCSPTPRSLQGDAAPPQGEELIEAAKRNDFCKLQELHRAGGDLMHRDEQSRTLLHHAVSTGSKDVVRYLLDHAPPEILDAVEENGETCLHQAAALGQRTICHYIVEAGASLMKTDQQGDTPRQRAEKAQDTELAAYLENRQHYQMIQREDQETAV
How it was run: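 ADP formation measured by ADP-Glo luminescence, with test compounds at final 1.55–10000 nM or 23.3–150000 nM. Enzyme: purified full-length human DGKζ from Sf9 insect cells; substrate: DAG/PS micelles in 25 mM HEPES pH 7.0, 0.5 mM EDTA, octyl glucoside.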

Sequence of DGKα (P23743 whole entry): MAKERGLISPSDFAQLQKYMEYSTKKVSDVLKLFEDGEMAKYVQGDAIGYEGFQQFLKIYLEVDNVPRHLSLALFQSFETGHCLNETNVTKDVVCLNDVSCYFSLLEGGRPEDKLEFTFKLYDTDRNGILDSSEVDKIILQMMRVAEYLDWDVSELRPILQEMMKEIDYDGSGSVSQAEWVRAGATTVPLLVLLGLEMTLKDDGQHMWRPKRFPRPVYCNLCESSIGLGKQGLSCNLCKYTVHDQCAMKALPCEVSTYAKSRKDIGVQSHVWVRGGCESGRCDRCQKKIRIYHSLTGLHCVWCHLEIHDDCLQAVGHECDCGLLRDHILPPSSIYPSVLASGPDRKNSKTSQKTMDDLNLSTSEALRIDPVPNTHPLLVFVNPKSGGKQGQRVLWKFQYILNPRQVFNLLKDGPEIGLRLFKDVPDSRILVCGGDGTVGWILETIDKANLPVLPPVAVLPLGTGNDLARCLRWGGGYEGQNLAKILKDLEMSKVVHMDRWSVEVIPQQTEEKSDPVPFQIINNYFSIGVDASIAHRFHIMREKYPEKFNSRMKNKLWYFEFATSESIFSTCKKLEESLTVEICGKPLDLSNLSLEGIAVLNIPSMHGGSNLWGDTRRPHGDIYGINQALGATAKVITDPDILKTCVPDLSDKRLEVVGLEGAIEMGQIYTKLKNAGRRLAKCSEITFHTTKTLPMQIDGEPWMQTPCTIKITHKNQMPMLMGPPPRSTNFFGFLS

| SMILES | IC50 [1] | IC50 [2] |
| --- | --- | --- |
| C[C@@H]1CN(c2cc(=O)n(C)c3c(C(F)(F)F)n(CC#N)nc23)[C@@H](C)CN1[C@@H](C)c1ccc2nccnc2c1 (single isomer, unassigned) [Compound A243, 2-(7-((2S,5R)-2,5-dimethyl-4-((S)-1-(quinoxalin-6-yl)ethyl)piperazin-1-yl)-4-methyl-5-oxo-3-(trifluoromethyl)-4,5-dihydro-2H-pyrazolo[4,3-b]pyridin-2-yl)acetonitrile or 2-(7-((2S,5R)-2,5-dimethyl-4-((R)-1-(quinoxalin-6-yl)ethyl)piperazin-1-yl)-4-methyl-5-oxo-3-(trifluoromethyl)-4,5-dihydro-2H-pyrazolo[4,3-b]pyridin-2-yl)acetonitrile] | > 10 µM | 1.35 µM |
| C[C@@H]1CN(c2cc(=O)n(C)c3c(C(F)(F)F)nn(CC#N)c23)[C@@H](C)CN1[C@@H](C)c1ccc2nccnc2c1 (single isomer, unassigned) [Compound A244, 2-(7-((2S,5R)-2,5-dimethyl-4-((S)-1-(quinoxalin-6-yl)ethyl)piperazin-1-yl)-4-methyl-5-oxo-3-(trifluoromethyl)-4,5-dihydro-1H-pyrazolo[4,3-b]pyridin-1-yl)acetonitrile or 2-(7-((2S,5R)-2,5-dimethyl-4-((R)-1-(quinoxalin-6-yl)ethyl)piperazin-1-yl)-4-methyl-5-oxo-3-(trifluoromethyl)-4,5-dihydro-1H-pyrazolo[4,3-b]pyridin-1-yl)acetonitrile] | > 10 µM | > 10 µM |
| CC(c1ccc2nccnc2c1)N1C[C@H](C)N(c2cc(=O)[nH]c3cn(CC#N)nc23)C[C@H]1C (single isomer, unassigned) [Compound A260, 2-(7-((2S,5R)-2,5-dimethyl-4-((R)-1-(quinoxalin-6-yl)ethyl)piperazin-1-yl)-5-oxo-4,5-dihydro-2H-pyrazolo[4,3-b]pyridin-2-yl)acetonitrile, or 2-(7-((2S,5R)-2,5-dimethyl-4-((S)-1-(quinoxalin-6-yl)ethyl)piperazin-1-yl)-5-oxo-4,5-dihydro-2H-pyrazolo[4,3-b]pyridin-2-yl)acetonitrile] | > 10 µM | 0.394 µM |
| Cc1c2c(nn1CC#N)c(N1C[C@@H](C)N(C(C)c3ccc(F)cc3C(F)(F)F)C[C@@H]1C)nc(=O)n2C (single isomer, unassigned) [Compound A267a] | > 10 µM | > 10 µM |
| Cc1cnc2cc([C@H](C)N3C[C@H](C)N(c4cc(=O)n(C)c5cn(CC#N)nc45)C[C@H]3C)ccc2n1 (single isomer, unassigned) [Compound A269a, 2-(7-((2S,5R)-2,5-dimethyl-4-((S)-1-(2-methylquinoxalin-6-yl)ethyl)piperazin-1-yl)-4-methyl-5-oxo-4,5-dihydro-2H-pyrazolo[4,3-b]pyridin-2-yl)acetonitrile, or 2-(7-((2S,5R)-2,5-dimethyl-4-((R)-1-(2-methylquinoxalin-6-yl)ethyl)piperazin-1-yl)-4-methyl-5-oxo-4,5-dihydro-2H-pyrazolo[4,3-b]pyridin-2-yl)acetonitrile] | > 10 µM | 0.365 µM |
| Cc1cnc2cc([C@H](C)N3C[C@H](C)N(c4cc(=O)n(C)c5cn(CC#N)nc45)C[C@H]3C)ccc2n1 (single isomer, unassigned) [Compound A269b, 2-(7-((2S,5R)-2,5-dimethyl-4-((S)-1-(2-methylquinoxalin-6-yl)ethyl)piperazin-1-yl)-4-methyl-5-oxo-4,5-dihydro-2H-pyrazolo[4,3-b]pyridin-2-yl)acetonitrile, or 2-(7-((2S,5R)-2,5-dimethyl-4-((R)-1-(2-methylquinoxalin-6-yl)ethyl)piperazin-1-yl)-4-methyl-5-oxo-4,5-dihydro-2H-pyrazolo[4,3-b]pyridin-2-yl)acetonitrile] | > 10 µM | 6.85 µM |
| CC[C@H]1CN(C(C)c2ccc(F)cc2C(F)(F)F)[C@H](CC)CN1c1cc(=O)n(C)c2c[nH]nc12 (single isomer, unassigned) [Compound A275a] | > 10 µM | 7.11 µM |
| CC[C@H]1CN(C(C)c2ccc(F)cc2C(F)(F)F)[C@H](CC)CN1c1cc(=O)n(C)c2c[nH]nc12 (single isomer, unassigned) [Compound A275b] | > 10 µM | 4.39 µM |
| CC[C@H]1CN(C(C)c2ccc3nc(OC)cnc3c2)[C@H](CC)CN1c1cc(=O)n(C)c2cn(CC#N)nc12 (single isomer, unassigned) [Compound A281a] | 6.65 µM | 0.077 µM |
| CC[C@H]1CN(C(C)c2ccc3nc(O)cnc3c2)[C@H](CC)CN1c1cc(=O)n(C)c2cn(CC#N)nc12 (single isomer, unassigned) [Compound A282a] | 0.182 µM | 5.35 µM |
| CC[C@H]1CN(C(C)c2ccc3nc(O)cnc3c2)[C@H](CC)CN1c1cc(=O)n(C)c2cn(CC#N)nc12 (single isomer, unassigned) [Compound A282b] | 10.5 µM | 6.96 µM |
| COC(C)c1cc(F)ccc1C(C)N1C[C@H](C)N(c2cc(=O)n(C)c3cn(CC#N)nc23)C[C@H]1C (single isomer, unassigned) [Compound A286a] | > 10 µM | 2.61 µM |
| COC(C)c1cc(F)ccc1C(C)N1C[C@H](C)N(c2cc(=O)n(C)c3cn(CC#N)nc23)C[C@H]1C (single isomer, unassigned) [Compound A286b] | 51.5 µM | 0.017 µM |
| CC(c1ccc(F)cc1CC#N)N1C[C@H](C)N(c2cc(=O)n(C)c3cn(CC#N)nc23)C[C@H]1C (single isomer, unassigned) [Compound A287a] | > 10 µM | 9.68 µM |
| CC(c1ccc(F)cc1CC#N)N1C[C@H](C)N(c2cc(=O)n(C)c3cn(CC#N)nc23)C[C@H]1C (single isomer, unassigned) [Compound A287b] | > 10 µM | 0.567 µM |
| C=CCn1cc2c(n1)c(N1C[C@@H](C)N(C(C)c3ccc4nccnc4c3)C[C@@H]1C)cc(=O)n2C (single isomer, unassigned) [Compound A299, 2-allyl-7-((2S,5R)-2,5-dimethyl-4-((S)-1-(quinoxalin-6-yl)ethyl)piperazin-1-yl)-4-methyl-2,4-dihydro-5H-pyrazolo[4,3-b]pyridin-5-one, or 2-allyl-7-((2S,5R)-2,5-dimethyl-4-((R)-1-(quinoxalin-6-yl)ethyl)piperazin-1-yl)-4-methyl-2,4-dihydro-5H-pyrazolo[4,3-b]pyridin-5-one] | 66.1 µM | 0.09 µM |
| C=CCCn1cc2c(n1)c(N1C[C@@H](C)N(C(C)c3ccc4nccnc4c3)C[C@@H]1C)cc(=O)n2C (single isomer, unassigned) [Compound A300, 2-(but-3-en-1-yl)-7-((2S,5R)-2,5-dimethyl-4-((S)-1-(quinoxalin-6-yl)ethyl)piperazin-1-yl)-4-methyl-2,4-dihydro-5H-pyrazolo[4,3-b]pyridin-5-one, or 2-(but-3-en-1-yl)-7-((2S,5R)-2,5-dimethyl-4-((R)-1-(quinoxalin-6-yl)ethyl)piperazin-1-yl)-4-methyl-2,4-dihydro-5H-pyrazolo[4,3-b]pyridin-5-one] | 54 µM | 0.524 µM |
| CC(c1ccc2ncc(CO)nc2c1)N1C[C@H](C)N(c2cc(=O)n(C)c3cn(CC#N)nc23)C[C@H]1C (single isomer, unassigned) [Compound A309a] | 118 µM | > 10 µM |
| CC(c1ccc2ncc(CO)nc2c1)N1C[C@H](C)N(c2cc(=O)n(C)c3cn(CC#N)nc23)C[C@H]1C (single isomer, unassigned) [Compound A309b] | 87 µM | 0.369 µM |
| [2H]C([2H])([2H])c1cnc2ccc(C(C)N3C[C@H](C)N(c4cc(=O)n(C)c5cn(CC#N)nc45)C[C@H]3C)cc2n1 (single isomer, unassigned) [Compound A313a] | 116 µM | 8.29 µM |
| [2H]C([2H])([2H])c1cnc2ccc(C(C)N3C[C@H](C)N(c4cc(=O)n(C)c5cn(CC#N)nc45)C[C@H]3C)cc2n1 (single isomer, unassigned) [Compound A313b] | 61.6 µM | 0.051 µM |
| CC#CCn1cc2c(n1)c(N1C[C@@H](CC)N(C(C)c3ccc(C(F)(F)F)cc3F)C[C@@H]1CC)cc(=O)n2C (single isomer, unassigned) [Compound A334a] | 0.308 µM | 0.978 µM |
| CC#CCn1cc2c(n1)c(N1C[C@@H](CC)N(C(C)c3ccc(C(F)(F)F)cc3F)C[C@@H]1CC)cc(=O)n2C (single isomer, unassigned) [Compound A334b] | 0.893 µM | > 10 µM |
| CC[C@H]1CN(C(C)c2ccc(C(F)F)cn2)[C@H](CC)CN1c1cc(=O)n(C)c2cn(CC#N)nc12 (single isomer, unassigned) [Compound A347a] | 0.173 µM | 4.8 µM |
| CC[C@H]1CN(C(C)c2ccc(C(F)F)cn2)[C@H](CC)CN1c1cc(=O)n(C)c2cn(CC#N)nc12 (single isomer, unassigned) [Compound A347b] | 0.008 µM | 0.223 µM |
| CC[C@H]1CN(C(C)c2ccc(C(F)(F)F)cn2)[C@H](CC)CN1c1cc(=O)n(C)c2cn(CC#N)nc12 (single isomer, unassigned) [Compound A348a] | 0.177 µM | 3.88 µM |
| CC[C@H]1CN(C(C)c2ccc(C(F)(F)F)cn2)[C@H](CC)CN1c1cc(=O)n(C)c2cn(CC#N)nc12 (single isomer, unassigned) [Compound A348b] | 0.009 µM | 0.138 µM |
| CC[C@H]1CN(C(C)c2ccc(C)nc2)[C@H](CC)CN1c1cc(=O)n(C)c2cn(CC#N)nc12 (single isomer, unassigned) [Compound A349a] | 0.49 µM | 0.462 µM |

Reference: patent US20240270751A1, “Pyrazolopyridinone Compounds” (BeiGene Ltd., priority 2021, published 2024)
